Reference: PMC8742467, “Therapeutical interference with the epigenetic landscape of germ cell tumors: a comparative drug study and new mechanistical insights” (Clinical Epigenetics, 2022)

Columns and labels:
[1] = tested on: histone modifications in 2102EP cells; assay: Mass spectrometry analysis of histone modifications (Mod Spec); assay type: cell-based, Human
Method in brief: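 2102EP cells were treated for 16 h with EC50 concentrations of Quisinostat, JIB-04, Chaetocin, MZ-1, LP99, PRT4165 or GSK343, with DMSO as solvent control. After trypsin harvest, histones were extracted and analysed by mass spectrometry. Raw data were converted to z-scores.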

[2] = tested on: DNA methylation (5mC, 5hmC) in 2102EP cells; assay: DNA slot blot (5mC, 5hmC); assay type: cell-based, Human; settings: 24 h
[3] = 2102EP cells, Mod Spec raw data
[4] = 2102EP, EC50, 16 h, vs solvent control

O=C1C(=Cc2cccnc2)C(=O)c2ccccc21 [PRT4165]
H1.4: K25AC, % of peptide pool [1, 3]: 0.05173% | H1.4: K25ME1, % of peptide pool [1, 3]: 2.298% | H1.4: K25ME2, % of peptide pool [1, 3]: 0.1042% | H1.4: K25ME3, % of peptide pool [1, 3]: 0.02395% | H1.4: K25UN, % of peptide pool [1, 3]: 97.522% | H2A1: K13AC, % of peptide pool [1, 3]: 0.008344% | H2A1: K13UN, % of peptide pool [1, 3]: 99.9917% | H2A1: K15AC, % of peptide pool [1, 3]: 0.002728% | H2A1: K15UB, % of peptide pool [1, 3]: 0% | H2A1: K15UN, % of peptide pool [1, 3]: 99.9973% | H2A3: K13AC, % of peptide pool [1, 3]: 0.03698% | H2A3: K13UN, % of peptide pool [1, 3]: 99.963% | H2A3: K15AC, % of peptide pool [1, 3]: 0.08285% | H2A3: K15UB, % of peptide pool [1, 3]: 0% | H2A3: K15UN, % of peptide pool [1, 3]: 99.9171% | H2A: K5AC, % of peptide pool [1, 3]: 15.4182% | H2A: K5UN, % of peptide pool [1, 3]: 84.5818% | H2A: K9AC, % of peptide pool [1, 3]: 1.95% | H2A: K9UN, % of peptide pool [1, 3]: 98.0496% | H2A: K36AC, % of peptide pool [1, 3]: 0.05592% | H2A: K36UN, % of peptide pool [1, 3]: 99.9441% | H3: K9AC, % of peptide pool [1, 3]: 0.7791% | H3: K9ME1, % of peptide pool [1, 3]: 33.7783% | H3: K9ME2, % of peptide pool [1, 3]: 30.8531% | H3: K9ME3, % of peptide pool [1, 3]: 3.071% | H3: K9UN, % of peptide pool [1, 3]: 31.5183% | H3: K14AC, % of peptide pool [1, 3]: 32.0961% | H3: K14UN, % of peptide pool [1, 3]: 67.9039% | H3: K18AC, % of peptide pool [1, 3]: 12.9985% | H3: K18ME1, % of peptide pool [1, 3]: 0.1614% | H3: K18UN, % of peptide pool [1, 3]: 86.8401% | H3: K23AC, % of peptide pool [1, 3]: 19.4498% | H3: K23ME1, % of peptide pool [1, 3]: 0.05975% | H3: K23UN, % of peptide pool [1, 3]: 80.4904% | H3: K56AC, % of peptide pool [1, 3]: 0.4117% | H3: K56ME1, % of peptide pool [1, 3]: 1.0746% | H3: K56UN, % of peptide pool [1, 3]: 98.5137% | H3: K64AC, % of peptide pool [1, 3]: 0.02258% | H3: K64UN, % of peptide pool [1, 3]: 99.9774% | H3: K79AC, % of peptide pool [1, 3]: 3.311% | H3: K79ME1, % of peptide pool [1, 3]: 23.508% | H3: K79ME2, % of peptide pool [1, 3]: 7.992% | H3: K79ME3, % of peptide pool [1, 3]: 11.4561% | H3: K79UN, % of peptide pool [1, 3]: 53.7325% | H3: K122AC, % of peptide pool [1, 3]: 0.1739% | H3: K122UN, % of peptide pool [1, 3]: 99.8261% | H3: Q19ME1, % of peptide pool [1, 3]: 0.01555% | H3: Q19UN, % of peptide pool [1, 3]: 99.9844% | H3: Q55ME1, % of peptide pool [1, 3]: 0.5287% | H3: Q55UN, % of peptide pool [1, 3]: 99.4713% | H3: R42ME2, % of peptide pool [1, 3]: 2.978% | H3: R42UN, % of peptide pool [1, 3]: 97.0223% | H3: R49ME2, % of peptide pool [1, 3]: 9.973% | H3: R49UN, % of peptide pool [1, 3]: 90.0271% | H3R2UN: K4AC, % of peptide pool [1, 3]: 0.1986% | H3R2UN: K4ME1, % of peptide pool [1, 3]: 18.1935% | H3R2UN: K4ME2, % of peptide pool [1, 3]: 0.2356% | H3R2UN: K4ME3, % of peptide pool [1, 3]: 0.09008% | H3R2UN: K4UN, % of peptide pool [1, 3]: 81.2822% | H3R2UN: Q5ME1, % of peptide pool [1, 3]: 0.1103% | H3R2UN: Q5UN, % of peptide pool [1, 3]: 99.8897% | H3.1: K27AC, % of peptide pool [1, 3]: 2.4319% | H3.1: K27ME1, % of peptide pool [1, 3]: 48.1679% | H3.1: K27ME2, % of peptide pool [1, 3]: 21.916% | H3.1: K27ME3, % of peptide pool [1, 3]: 3.429% | H3.1: K27UN, % of peptide pool [1, 3]: 24.0551% | H3.1: K36AC, % of peptide pool [1, 3]: 0.4356% | H3.1: K36ME1, % of peptide pool [1, 3]: 14.9062% | H3.1: K36ME2, % of peptide pool [1, 3]: 45.0841% | H3.1: K36ME3, % of peptide pool [1, 3]: 22.3724% | H3.1: K36UN, % of peptide pool [1, 3]: 17.2016% | H3.3: K27AC, % of peptide pool [1, 3]: 6.482% | H3.3: K27M, % of peptide pool [1, 3]: 0% | H3.3: K27ME1, % of peptide pool [1, 3]: 46.8114% | H3.3: K27ME2, % of peptide pool [1, 3]: 16.0905% | H3.3: K27ME3, % of peptide pool [1, 3]: 6.139% | H3.3: K27UN, % of peptide pool [1, 3]: 24.4778% | H3.3: K36AC, % of peptide pool [1, 3]: 3.39% | H3.3: K36ME1, % of peptide pool [1, 3]: 13.3786% | H3.3: K36ME2, % of peptide pool [1, 3]: 45.5834% | H3.3: K36ME3, % of peptide pool [1, 3]: 23.7392% | H3.3: K36UN, % of peptide pool [1, 3]: 13.9089% | H4: K5AC, % of peptide pool [1, 3]: 8.039% | H4: K5UN, % of peptide pool [1, 3]: 91.9614% | H4: K8AC, % of peptide pool [1, 3]: 12.3075% | H4: K8UN, % of peptide pool [1, 3]: 87.6925% | H4: K12AC, % of peptide pool ([1]; 2102EP cells, Mod Spec raw data, histone H4 K12 acetylated): 6.955 % of peptide pool | H4: K12UN, % of peptide pool ([1]; 2102EP cells, Mod Spec raw data, histone H4 K12 unmodified): 93.045 % of peptide pool | H4: K16AC, % of peptide pool ([1]; 2102EP cells, Mod Spec raw data, histone H4 K16 acetylated): 45.5782 % of peptide pool | H4: K16UN, % of peptide pool ([1]; 2102EP cells, Mod Spec raw data, histone H4 K16 unmodified): 54.4218 % of peptide pool | H4: K20AC, % of peptide pool ([1]; 2102EP cells, Mod Spec raw data, histone H4 K20 acetylated): 32.1833 % of peptide pool | H4: K20ME2, % of peptide pool ([1]; 2102EP cells, Mod Spec raw data, histone H4 K20 dimethylated): 44.5336 % of peptide pool | H4: K20ME1, % of peptide pool ([1]; 2102EP cells, Mod Spec raw data, histone H4 K20 monomethylated): 4.33 % of peptide pool | H4: K20ME3, % of peptide pool ([1]; 2102EP cells, Mod Spec raw data, histone H4 K20 trimethylated): 2.102 % of peptide pool | H4: K20UN, % of peptide pool ([1]; 2102EP cells, Mod Spec raw data, histone H4 K20 unmodified): 16.8517 % of peptide pool | change of histone modifications of the expected mode of action (Mod Spec) [1, 4]: decreased ubiquitination (ub) of the target histone H2AK119 [50] could not be detected | off-target changes of histone modifications (Mod Spec) [1, 4]: increase of H3K36me3, H4K20ac, H3K79me1/ac | 5hmC levels increase compared to solvent control [2]: 25% | 5mC levels compared to solvent control ([2]; solvent control set to 100%): 84%
